The source of these data is patent publication US9062077B2, “Benzopyranobenzothiazinones and their use as fungicides, antibiotics and antitumor agents” (Leibniz-Institut fuer Naturstoff-Forschung und …, priority 2011, dated 2015).

The term IC50 denotes the midpoint of a concentration-inhibition curve.

Holding throughout (type): cell-based
Series [1] in a line: cytotoxic assay, HeLa cells. Conditions: human, read-out: IC50, cytotoxic effects against HeLa cells. The method, then: (§1) HeLa cells were used for the cytotoxic assay, HUVEC and K-562 cells were taken for the antiproliferative assay. The assays were conducted with phaeofungin C as described previously (Krauth et al., Bioorg. Med. Chem. 2010, 18, 1816-1821; Abdou et al., Phytochemistry 2010, 71, 110-116). Dose-response curves and IC50 values were then plotted and estimated, respectively.

The next series deals with HUVEC. The experiment in a line: antiproliferative assay, HUVEC. As to conditions: Homo sapiens, read-out: GI50, inhibition of proliferation of HUVEC. On the procedure:
as §1

Series [2] concerns K-562 human leukemia cell lines. The series can be described thus: antiproliferative assay, K-562. As to conditions: K562, read-out: GI50, inhibition of proliferation of K-562 human leukemia cell lines. On the procedure: as §1

For the compound `Cc1cc(O)c(O)c(Oc2cc(C)c3c4c(c(=O)oc3c2O)Nc2c(O)cc(C)cc2S4)c1` [Phaeofungin C], the IC50 in series [1] worked out at 10 µM. Also, the values for the GI50 (in the series with HUVEC; in series [2]) were 7.5 µM and 2400 nM, respectively.
